# Data as given in publication PMC11292009, “Mapping protein binding sites by photoreactive fragment pharmacophores” (Communications Chemistry, 2024).
# Columns and labels:
# Assay type in all cases: binding
# [1] = system: carbonic anhydrase II (CA); assay: Intact protein MS photoaffinity labeling screen, carbonic anhydrase; settings: intact protein MS after 10 min irradiation
# Description: (§1) Using a plate-based format with one fragment per well, each fragment was incubated with the target proteins for 15 min to allow for the formation of non-covalent interactions. […] Finally, the results were directly analyzed from the plate using intact protein mass spectrometry by observing the mass additions that correspond to successful labeling (Fig. 2c, for labeling % values see Supplementary data). The library was first characterized against three benchmark proteins like carbonic anhydrase (CA), lysozyme (Lyo), and myoglobin (Myo).
# BRD4-BD1 = system: T1, BRD4-BD1; assay: Intact MS photoaffinity labeling screen, BRD4-BD1 (302 nm, LCMS-TOF); settings: for MS labeling percentage, BRD4: BRD4-BD1, 302 nm 10 min; for BRD4-BD1: experimental hit status flag (0/1)
# T1 construct: screened the PhP library against the first bromodomain of BRD4 (BRD4-BD1); purchased GSK/GenScript
# Description: as §1
# (§2) The PhP library was screened against BRD4-BD1 and KRas^G12D as follows. […] The probe plate was placed on ice. 15 μL of protein stock solution (1 μM BRD4-BD1 (GSK/GenScript) or KRas^G12D (GSK/GenScript) in PBS buffer) was dispensed into wells containing fragments. The plate was left on ice for 15 min for incubation, then irradiated at 302 nm for 10 min, and centrifuged (1000 rpm, 1 min) to remove any bubbles. […] The deconvoluted spectra were analyzed using R Studio software.
# KRas^G12D = system: T2, KRas^G12D; assay: Intact MS photoaffinity labeling screen, KRas G12D (302 nm, LCMS-TOF); settings: for MS labeling percentage, KRas: KRas G12D, 302 nm 10 min; for KRAS-G12D: experimental hit status flag (0/1)
# T2 construct: purchased GSK/GenScript
# Description: as §1, §2
# lysozyme (Lyo) = assay: Intact protein MS photoaffinity labeling screen, lysozyme; settings: intact protein MS after 10 min irradiation
# Description: as §1
# myoglobin (Myo) = assay: Intact protein MS photoaffinity labeling screen, myoglobin; settings: intact protein MS after 10 min irradiation
# Description: as §1
# STAT5B-NTD [2] = system: T3, STAT5B-NTD; assay: Intact MS photoaffinity labeling screen, STAT5B-NTD (365 nm, UHPLC-MS); settings: for MS labeling percentage, STAT5B: STAT5B-NTD, 365 nm 10 min, no photocatalyst; for STAT5B-NTD: experimental hit status flag (0/1);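 for MS labeling percentage, STAT5B: 0.17 µL of 100 mM DMSO fragment stock added to the protein sample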
# T3 construct: His-SUMO (N, cleaved yes); made in house; host or cells: E. coli BL21 RILP
# Description: STAT5B protein in 7 µM concentration in pH 7.4 PBS buffer was pre-incubated with 0.17 µL PhP (in 100 mM DMSO solution) for 1 h at room temperature in dark. Irradiation was carried out at 4 °C for 10 min using 365 nm UV lamp.
# (§3) During the analysis, the column temperature was maintained at a constant 60 °C, and a sample volume of 3 µL was injected for each analysis. Data acquisition was conducted in positive ion mode within the m/z 100–2000 (mass-to-charge ratio) range. For the full protocol and spectra of the hits, see Supplementary Note 2.
# STAT5B-NTD [3] = system: T3, STAT5B-NTD; assay: Intact MS labeling screen, STAT5B-NTD conjugated with photocatalyst Ir-G2-PEG3-COOH (450 nm); settings: 450 nm 10 min;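 note: 0.14 µL of 100 mM DMSO fragment stock added to the conjugate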
# Description: For the photocatalysis experiments, 1.4 µL photocatalyst (in 1.4 mM DMSO solution, 10 eq) was pre-incubated with 1.5 µL coupling reagent (0.75 µL, 5.6 mM EDC (20 eq)+0.75 µL 4.2 mM NHS and 1.5 µL 2.1 mM (15 eq) BOP for 30 min in dark. 30 µL STAT5B-NTD (in 7 µM concentration) was added and incubated further at room temperature overnight or at 37 °C for 1 h in dark. After addition of 0.14 µL PhP (in 100 mM DMSO) the solution was further incubated in dark for 1 h. Irradiation was carried out using 450 nm LED lamp (7.6Vx0A) for 10 min at 4 °C.
# as §3
Compound,"MS labeling percentage, CA [1] [%]","MS labeling percentage, BRD4 (BRD4-BD1) [%]",BRD4-BD1 (BRD4-BD1),"MS labeling percentage, KRas (KRas^G12D) [%]",KRAS-G12D (KRas^G12D),"MS labeling percentage, Lyo (lysozyme (Lyo)) [%]","MS labeling percentage, Myo (myoglobin (Myo)) [%]","MS labeling percentage, STAT5B (STAT5B-NTD [2]) [%]",STAT5B-NTD (STAT5B-NTD [2]),"MS labeling percentage, STAT5B+photocat (STAT5B-NTD [3]) [%]"
"CCOC(=O)c1c(NC(=O)CCC2(C)N=N2)sc2c1CCN(Cc1ccccc1)C2 [PhP002, N1=NC1(C)CCC(=O)Nc(s2)c(C(=O)OCC)c(c23)CCN(C3)Cc4ccccc4]",0.2,0.1,0,0.2,0,0,0.1,0,0,0
"Cc1[nH]c2ccc(CNC(=O)CCC3(C)N=N3)cc2c1C [PhP004, Cc([nH]1)c(C)c(c12)cc(cc2)CNC(=O)CCC3(C)N=N3]",0.1,–,0,0.7,0,0,0.3,2.9,0,13
"CCOC(=O)[C@H](NC(=O)CCC1(C)N=N1)c1ccccc1 [PhP005, c1ccccc1[C@H](C(=O)OCC)NC(=O)CCC2(C)N=N2]",0.1,0.1,0,0,0,0,0.1,2,0,1.5
"COc1ccc(-c2csc(CCNC(=O)CCC3(C)N=N3)n2)cc1 [PhP006, COc1ccc(cc1)-c2csc(n2)CCNC(=O)CCC3(C)N=N3]",0.6,2.3,0,1.3,0,0,0.3,0,0,3.3
"CN1C(=O)COc2ccc(NC(=O)CCC3(C)N=N3)cc21 [PhP007, O1CC(=O)N(C)c(c12)cc(cc2)NC(=O)CCC3(C)N=N3]",0.2,0.4,0,0.2,0,1.8,0.1,1,0,12.7
"CC1(CCC(=O)NCc2cncc3ccccc23)N=N1 [PhP008, N1=NC1(C)CCC(=O)NCc(cnc2)c(c23)cccc3]",0.9,0.5,0,1,0,0,0.6,2.9,0,19.6
"Cc1[nH]cnc1CNC(=O)CCC1(C)N=N1 [PhP009, Cc1[nH]cnc1CNC(=O)CCC2(C)N=N2]",0.6,0.7,0,0.7,0,0,0.4,1,0,1
"CC1(CCC(=O)NCc2ccc(N3CCC(CO)CC3)cc2)N=N1 [PhP010, N1=NC1(C)CCC(=O)NCc2ccc(cc2)N3CCC(CO)CC3]",0,0.3,0,0.5,0,0,0,1,0,0
